# Assay results as given in PubChem BioAssay AID330 (DTP/NCI, 2004).
# Several values for one entry are separate records, joined by “and”; a condition that tells them apart may be missing. Identical values can stand only once. Inconclusive results and toxic doses are left out.
# Tested on: P388 leukemia ip, CD2F1 mice, survival T/C
# Test: NCI In Vivo Anticancer Drug Screen. Data for tumor model P388 Leukemia (intraperitoneal) in CD2F1 (CDF1) mice
# Settings: endpoint: median survival time, higher = longer survival
# Summary of the method: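 Mice carrying the transplanted tumor received test compound or vehicle. Survival was recorded in each group, and the value is the treated-group measurement divided by that of the vehicle-treated control group.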
# [1] = dose: 60.0 mg/kg/injection, schedule: Q01DX005 (ip), vehicle: Klucel (hydroxypropylcellulose) (HPC)
# [2] = dose: 120.0 mg/kg/injection, schedule: Q01DX005 (ip), vehicle: Klucel (hydroxypropylcellulose) (HPC)
# [3] = dose: 240.0 mg/kg/injection, schedule: Q01DX005 (ip), vehicle: Klucel (hydroxypropylcellulose) (HPC)
# [4] = dose: 12.5 mg/kg/injection, schedule: Q01DX009 (ip), vehicle: Klucel (hydroxypropylcellulose) (HPC)
# [5] = dose: 25.0 mg/kg/injection, schedule: Q01DX009 (ip), vehicle: Klucel (hydroxypropylcellulose) (HPC)
# [6] = dose: 50.0 mg/kg/injection, schedule: Q01DX009 (ip), vehicle: Klucel (hydroxypropylcellulose) (HPC)
# [7] = dose: 100.0 mg/kg/injection, schedule: Q01DX009 (ip), vehicle: Klucel (hydroxypropylcellulose) (HPC)
# [8] = dose: 50.0 mg/kg/injection, schedule: Q01DX005 (ip), vehicle: saline with Tween-80
# [9] = dose: 100.0 mg/kg/injection, schedule: Q01DX005 (ip), vehicle: saline with Tween-80
# [10] = dose: 30.0 mg/kg/injection, schedule: Q01DX005 (ip), vehicle: Klucel (hydroxypropylcellulose) (HPC)
compound,measurement,setting,value
CC(=O)OC1OC(=O)C(C)(C(C)=O)C1C (centres undefined),T/C,"dose: 12.5 mg/kg/injection, schedule: Q01DX005 (ip), vehicle: distilled water + alcohol",100 % of control
same,T/C,"dose: 25.0 mg/kg/injection, schedule: Q01DX005 (ip), vehicle: distilled water + alcohol",100 % of control
CC[C@](O)(C(=O)O)c1cc2n(c(=O)c1CO)Cc1cc3ccccc3nc1-2,T/C,"dose: 0.5 mg/kg/injection, schedule: Q01DX009 (ip), vehicle: saline with Tween-80",118 % of control
same,T/C,"dose: 0.5 mg/kg/injection, schedule: Q01DX009 (ip), vehicle: water",120 % of control
same,T/C,"dose: 1.57 mg/kg/injection, schedule: Q04DX003 (ip), vehicle: other",116 % of control and 119 % of control
same,T/C,"dose: 2.0 mg/kg/injection, schedule: Q01DX009 (ip), vehicle: saline sonified",163 % of control
same,T/C,"dose: 2.0 mg/kg/injection, schedule: Q01DX009 (ip), vehicle: saline with Tween-80",159 % of control
same,T/C,"dose: 2.0 mg/kg/injection, schedule: Q01DX009 (ip), vehicle: water",158 % of control
same,T/C,"dose: 2.5 mg/kg/injection, schedule: Q04DX003 (ip), vehicle: water",120 % of control
same,T/C,"dose: 4.0 mg/kg/injection, schedule: Q01DX009 (ip), vehicle: saline sonified",100 % of control
same,T/C,"dose: 4.0 mg/kg/injection, schedule: Q01DX009 (ip), vehicle: saline with Tween-80",195 % of control
same,T/C,"dose: 4.0 mg/kg/injection, schedule: Q01DX009 (ip), vehicle: water",207 % of control
same,T/C,"dose: 5.0 mg/kg/injection, schedule: Q04DX003 (ip), vehicle: water",111 % of control
same,T/C,"dose: 6.25 mg/kg/injection, schedule: Q04DX003 (ip), vehicle: other",156 % of control and 159 % of control
same,T/C,"dose: 6.25 mg/kg/injection, schedule: Q04DX003 (ip), vehicle: water",154 % of control
same,T/C,"dose: 8.0 mg/kg/injection, schedule: Q01DX009 (ip), vehicle: water",100 % of control
same,T/C,"dose: 9.72 mg/kg/injection, schedule: Q04DX002 (ip), vehicle: saline",108 % of control
same,T/C,"dose: 10.0 mg/kg/injection, schedule: Q04DX003 (ip), vehicle: water",155 % of control
same,T/C,"dose: 10.8 mg/kg/injection, schedule: Q04DX002 (ip), vehicle: saline",160 % of control
same,T/C,"dose: 12.5 mg/kg/injection, schedule: Q04DX003 (ip), vehicle: other",106 % of control and 113 % of control
same,T/C,"dose: 13.0 mg/kg/injection, schedule: Q04DX003 (ip), vehicle: saline",185 % of control
same,T/C,"dose: 18.0 mg/kg/injection, schedule: Q04DX002 (ip), vehicle: saline",159 % of control
same,T/C,"dose: 20.0 mg/kg/injection, schedule: Q04DX003 (ip), vehicle: water",178 % of control and 220 % of control
same,T/C,"dose: 21.6 mg/kg/injection, schedule: Q04DX003 (ip), vehicle: saline",217 % of control
same,T/C,"dose: 25.0 mg/kg/injection, schedule: Q04DX003 (ip), vehicle: other",98 % of control and 90 % of control
same,T/C,"dose: 25.0 mg/kg/injection, schedule: Q04DX003 (ip), vehicle: water",154 % of control
same,T/C,"dose: 30.0 mg/kg/injection, schedule: Q04DX002 (ip), vehicle: saline",177 % of control
same,T/C,"dose: 36.0 mg/kg/injection, schedule: Q04DX003 (ip), vehicle: saline",233 % of control
same,T/C,"dose: 40.0 mg/kg/injection, schedule: Q04DX003 (ip), vehicle: water",212 % of control and 94 % of control
same,T/C,"dose: 45.0 mg/kg/injection, schedule: Q04DX002 (ip), vehicle: saline",157 % of control and 196 % of control
same,T/C,"dose: 50.0 mg/kg/injection, schedule: Q04DX002 (ip), vehicle: saline",183 % of control
same,T/C,"dose: 60.0 mg/kg/injection, schedule: Q04DX003 (ip), vehicle: saline",93 % of control
same,T/C,"dose: 83.3 mg/kg/injection, schedule: Q04DX002 (ip), vehicle: saline",91 % of control
same,T/C,"dose: 128.0 mg/kg/injection, schedule: Q04DX003 (ip), vehicle: saline",58 % of control
CCCCC(/C=N/NC(N)=S)C(=O)OCC (centres undefined),T/C,[1],102 % of control
same,T/C,[2],100 % of control
same,T/C,[3],100 % of control
Nc1nc2ccc(CNc3ccc(C(=O)NC(CC(=O)O)C(=O)O)cc3)cc2c(=O)[nH]1 (centres undefined),T/C,[4],100 % of control
same,T/C,[5],96 % of control
same,T/C,[6],99 % of control and 103 % of control
same,T/C,[7],116 % of control
O=[N+]([O-])c1ccc(/C=C(/c2ccc([N+](=O)[O-])o2)S(=O)(=O)c2ccccc2)o1,T/C,"dose: 50.0 mg/kg/injection, schedule: Q01DX009 (ip), vehicle: suspension in saline",95 % of control
same,T/C,"dose: 100.0 mg/kg/injection, schedule: Q01DX009 (ip), vehicle: suspension in saline",100 % of control
Cn1c(N(CCN2CCOCC2)C(=O)/C=C\c2ccccc2)cc(=O)n(C)c1=O,T/C,[8],105 % of control
same,T/C,"dose: 50.0 mg/kg/injection, schedule: Q01DX005 (ip), vehicle: water",103 % of control
same,T/C,[9],100 % of control
same,T/C,"dose: 100.0 mg/kg/injection, schedule: Q01DX005 (ip), vehicle: water",112 % of control
same,T/C,"dose: 200.0 mg/kg/injection, schedule: Q01DX005 (ip), vehicle: saline with Tween-80",97 % of control
same,T/C,"dose: 200.0 mg/kg/injection, schedule: Q01DX005 (ip), vehicle: water",109 % of control
CN1CCC/C1=C1/Cc2ccccc2C1=O,T/C,"dose: 50.0 mg/kg/injection, schedule: Q01DX005 (ip), vehicle: Klucel (hydroxypropylcellulose) (HPC)",91 % of control
same,T/C,"dose: 100.0 mg/kg/injection, schedule: Q01DX005 (ip), vehicle: Klucel (hydroxypropylcellulose) (HPC)",108 % of control
O=C1CSC(c2ccccc2)N1c1nncs1 (centres undefined),T/C,[10],100 % of control
same,T/C,[1],101 % of control
same,T/C,[2],101 % of control
same,T/C,[3],103 % of control
Cc1cc(C)nc(NS(=O)(=O)c2ccc(NC(=O)NCCCl)cc2)n1,T/C,[10],106 % of control
same,T/C,[1],107 % of control
same,T/C,[2],100 % of control
same,T/C,[3],114 % of control
O=S(CF)c1ccc(Cl)cc1 (centres undefined),T/C,"dose: 100.0 mg/kg/injection, schedule: Q04DX003 (ip), vehicle: saline with Tween-80",93 % of control
same,T/C,"dose: 200.0 mg/kg/injection, schedule: Q04DX003 (ip), vehicle: saline with Tween-80",102 % of control
same,T/C,"dose: 400.0 mg/kg/injection, schedule: Q04DX003 (ip), vehicle: saline with Tween-80",107 % of control
COc1cccc2c1C(=O)OC2=O,T/C,[4],105 % of control
same,T/C,[5],105 % of control
same,T/C,[6],112 % of control
same,T/C,[7],97 % of control
same,T/C,"dose: 200.0 mg/kg/injection, schedule: Q01DX009 (ip), vehicle: Klucel (hydroxypropylcellulose) (HPC)",96 % of control
CCCCOP(=O)(Nc1ccccc1)OCCCC,T/C,"dose: 100.0 mg/kg/injection, schedule: Q01DX009 (ip), vehicle: saline with Tween-80",110 % of control
same,T/C,"dose: 200.0 mg/kg/injection, schedule: Q01DX009 (ip), vehicle: saline with Tween-80",112 % of control
same,T/C,"dose: 400.0 mg/kg/injection, schedule: Q01DX009 (ip), vehicle: saline with Tween-80",110 % of control
CC(=O)N1N=C(c2ccc(OCC(O)CN3CCN(CC(O)COc4ccc(C5=NN(C(C)=O)C(c6ccccc6)C5)cc4)CC3)cc2)CC1c1ccccc1 (centres undefined),T/C,[8],100 % of control
same,T/C,[9],86 % of control
COc1cc2cc(c1Cl)N(C)C(=O)CC(O)C1(C)OC1C(C)C1CC(O)(NC(=O)O1)C(OC)/C=C/C=C(C)C2OC (centres undefined),T/C,"dose: 4.0 micrograms/kg/injection, schedule: Q01DX009 (ip), vehicle: distilled water + Tween-80 + alcohol",97 % of control
same,T/C,"dose: 8.0 micrograms/kg/injection, schedule: Q01DX009 (ip), vehicle: distilled water + Tween-80 + alcohol",104 % of control
same,T/C,"dose: 16.0 micrograms/kg/injection, schedule: Q01DX009 (ip), vehicle: distilled water + Tween-80 + alcohol",97 % of control
same,T/C,"dose: 32.0 micrograms/kg/injection, schedule: Q01DX009 (ip), vehicle: distilled water + Tween-80 + alcohol",107 % of control
same,T/C,"dose: 32.0 micrograms/kg/injection, schedule: Q01DX009 (ip), vehicle: distilled water + alcohol",99 % of control
same,T/C,"dose: 64.0 micrograms/kg/injection, schedule: Q01DX009 (ip), vehicle: distilled water + alcohol",101 % of control
same,T/C,"dose: 128.0 micrograms/kg/injection, schedule: Q01DX009 (ip), vehicle: distilled water + alcohol",101 % of control
